Data taken from patent US20060153906A1, “Pharmaceutical product for endonasal administration for treating central nervous system disease and disorders” (priority 2002, published 2006).
Read-outs that look alike come from different tables or passages of the source.

How the values were obtained:
[1] = system: rats
Excerpt: It should be emphasized that dopamine is not capable of penetrating the blood-brain barrier when administered conventionally.

[2] = system: rear paw of the rats; assay: Randall-Selitto pain test, critical pressure (WKD) on the rear paw; type: in vivo, rat
Method: The anti-nociceptive and/or analgesic effect of promedol (trimeperidine) was investigated as a result of the endonasal administration of the combination H2O2+promedol. The experiments were conducted with (raceless) sexually mature white male rats. In a pain test, the value of the critical pressure (WKD) on the rear paw of the rats was measured. The controlled pressure on the paw was generated with an analgesimeter from the company Ugo Basile in form of the Randall-Selitto test.
Comparative results in relation to the composition of the invention include, on one hand, the intraperitoneal administration of promedol without the addition of oxygen anion radicals and, on the other hand, the intraperitoneal administration of promedol with addition of oxygen anion radicals by, on one hand, inhalation with the inhalation device described in DE 41 12 459 A1 and, on the other hand, by separate endonasal administration of a liquid hydrogen peroxide solution with a concentration of 10^−5 mole/l.
The administration according to the invention consisted of a mixture of xanthine-oxidase/xanthine and promedol in doses of 5, 2, 1, and 0.1 mg/kg bodyweight of the animals.

[3] = system: white male rats; assay: Food motivation in partially food-deprived rats, endonasal administration; type: in vivo, rat
Excerpt: The experiments where carried out with white male rats. The animals of the control group 1 (n=13) received distilled water, the animals of the control group 2 (n=7) received a glucose solution, and the animals of the experimental group (n=9) received the composition H2O2+glucose. The duration of the observation was 17 days. During the first 11 days, the animals where controllably partially deprived of food (20 g dry mixed feed per animal). During the first week of the experiment, the initial motivation level for food was evaluated in the absence of the investigated preparation. The following parameters were investigated:
Latent period (LP) between the approach to the food and presentation of the food in seconds;
Time for consuming the food, in seconds (Tfut.);
Number of interruptions during food uptake (Ubr.)
After the second week, without changing the feed conditions, the preparation was introduced twice daily in a dose of 20 μl per animal, and all parameters where recorded. After the second week, the animals where fed ad libidum. No changes were made in the administration of the preparation and recordation of all parameters.
The experiments where conducted as in Example 1.

[4] = system: patients with persistent or severe pain; assay: Analgesic effect in patients with persistent or severe pain; type: in vivo, human
Excerpt: The enhancement of the therapeutic efficacy of the analgesic metamizol was investigated. A total of 5 volunteers participated in the observations. […] With all patients, the observations were made after six hours following the last administration of the pain therapy.

[5] = system: white mice; assay: Soporific effect (sleep duration) after endonasal administration; type: in vivo, mouse; settings: 60 mg/ml, n = 7
Excerpt: Investigated was the effect of phenobarbital in an endonasal administration on sexually mature white mice. Both the sedative and the soporific effect of the endonasal administration of phenobarbital without oxygen anion radicals were compared with the administration of the […]

[6] = rats given haloperidol i/p (100 mg/kg), one-time endonasal, dopamine 0.125 mg/kg, L-arginine 10^-5 mole/l, H2O2 10^-6 mole/l
[7] = after administration of preparation, endonasal twice daily 20 μl per animal
[8] = before administration minus after administration (Table 4)
[9] = before administration of preparation

NCCc1ccc(O)c(O)c1 [Dopamine, dopamine]
Total spontaneous activity (Number of measurable movements) [1, 6]: 2 ± 1.7 ^##)

OO [H2O2, hydrogen peroxide]
Total spontaneous activity (Number of measurable movements) [1, 6]: 3 ± 1.9 ^##)

O=C(CCCN1CCC(O)(c2ccc(Cl)cc2)CC1)c1ccc(F)cc1 [Haloperidol]
Total spontaneous activity (Number of measurable movements) ([1]; haloperidol i/p alone (100 mg/kg bodyweight), unharmed control 35 ± 8): 3 ± 3 ^##)

CCC(=O)OC1(c2ccccc2)CC(C)N(C)CC1C (stereo not drawn) [Promedol, trimeperidine]
Lower dose of promedol giving prolonged and enhanced analgesic effect, endonasal form with oxygen anion radicals vs other administration methods ([2]; endonasal composition compared to other administration methods): 10-50 times | Nociception (critical pressure WKD) ([2]; group II, 1.0 mg/kg i/p, 30 min after injection): 6.2 ± 1.9 | Nociception (critical pressure WKD) ([2]; group II, 1.0 mg/kg i/p, 90 min after injection): 5.4 ± 1.4 | Nociception (critical pressure WKD) ([2]; group II, 1.0 mg/kg i/p, 150 min after injection): 5.0 ± 1.2 | Nociception (critical pressure WKD) ([2]; group II, 1.0 mg/kg i/p, 210 min after injection): 4.8 ± 0.9 | Initial value of nociception (critical pressure WKD) ([2]; group II, 1.0 mg/kg i/p): 6.7 ± 0.9 | Nociception (critical pressure WKD) ([2]; group III, 2.0 mg/kg i/p, 30 min after injection): 10.1 ± 1.1*) | Nociception (critical pressure WKD) ([2]; group III, 2.0 mg/kg i/p, 90 min after injection): 9.3 ± 1.0*) | Nociception (critical pressure WKD) ([2]; group III, 2.0 mg/kg i/p, 150 min after injection): 8.0 ± 1.1 | Nociception (critical pressure WKD) ([2]; group III, 2.0 mg/kg i/p, 210 min after injection): 7.5 ± 0.9 | Initial value of nociception (critical pressure WKD) ([2]; group III, 2.0 mg/kg i/p): 7.8 ± 1.6 | Nociception (critical pressure WKD) ([2]; group IV, 5.0 mg/kg i/p, 30 min after injection): 11.0 ± 1.0**) | Nociception (critical pressure WKD) ([2]; group IV, 5.0 mg/kg i/p, 90 min after injection): 9.8 ± 1.3**) | Nociception (critical pressure WKD) ([2]; group IV, 5.0 mg/kg i/p, 150 min after injection): 8.3 ± 1.7*) | Nociception (critical pressure WKD) ([2]; group IV, 5.0 mg/kg i/p, 210 min after injection): 6.7 ± 1.0 | Initial value of nociception (critical pressure WKD) ([2]; group IV, 5.0 mg/kg i/p): 6.4 ± 0.7 | Nociception (critical pressure WKD) ([2]; group V, 1.0 mg/kg i/p + O2- inhalation, 30 min): 8.1 ± 3.6*) | Nociception (critical pressure WKD) ([2]; group V, 1.0 mg/kg i/p + O2- inhalation, 90 min): 8.1 ± 2.3**) | Nociception (critical pressure WKD) ([2]; group V, 1.0 mg/kg i/p + O2- inhalation, 150 min): 9.6 ± 5.0**) | Nociception (critical pressure WKD) ([2]; group V, 1.0 mg/kg i/p + O2- inhalation, 210 min): 5.8 ± 2.3 | Initial value of nociception (critical pressure WKD) ([2]; group V, 1.0 mg/kg i/p + O2- inhalation): 6.9 ± 1.6 | Nociception (critical pressure WKD) ([2]; group VI, 1.0 mg/kg i/p + separate endonasal H2O2-administration, 30 min): 8.4 ± 2.8*) | Nociception (critical pressure WKD) ([2]; group VI, 1.0 mg/kg i/p + separate endonasal H2O2-administration, 90 min): 8.7 ± 2.0**) | Nociception (critical pressure WKD) ([2]; group VI, 1.0 mg/kg i/p + separate endonasal H2O2-administration, 150 min): 8.6 ± 2.7**) | Nociception (critical pressure WKD) ([2]; group VI, 1.0 mg/kg i/p + separate endonasal H2O2-administration, 210 min): 7.3 ± 2.2 | Initial value of nociception (critical pressure WKD) ([2]; group VI, 1.0 mg/kg i/p + separate endonasal H2O2-administration): 7.1 ± 1.8

N[C@@H](CCC(=O)O)C(=O)O [glutamic acid]
LP, latent period between approach to the food and presentation of the food [3, 7]: 36.3 ± 4.1 s | Tfut., time for consuming the food [3, 7]: 491.2 ± 9.4 s | Change in LP [3, 8]: 33.3 ± 13.1 s | Change in Tfut. [3, 8]: -77.2 ± 26.6 s | Change in Ubr. [3, 8]: 0.4 ± 0.6 s | LP, latent period between approach to the food and presentation of the food [3, 9]: 69.9 ± 15.9 s | Tfut., time for consuming the food [3, 9]: 414.0 ± 30.6 s

Cc1c(N(C)CS(=O)(=O)O)c(=O)n(-c2ccccc2)n1C [metamizol]
Analgesic efficacy in all patients ([4]; endonasally, dose of 10 mg, without addition of oxygen anion radicals): not effective | Analgesic efficacy in all patients ([4]; per os, dose of 500 mg): not effective

CCC1(c2ccccc2)C(=O)NC(=O)NC1=O [phenobarbital]
Sleep duration [5]: 248.5 ± 22.2 min
